Assay results taken from US20080280891A1, “Anti-cancer agents and uses thereof” (Locus Pharmaceuticals, Inc., priority 2006, published 2008).
Values belong to the compound of their own block, whether it stands above or below them.

What was measured:
[1] = test system: NCI-H522 non small cell lung cancer cells; assay: Cell cycle assay (Example 164), G2/M block in NCI-H522 cells; assay type: cell-based; conditions: Homo sapiens; for activation at 0.1 µM: 24 h, flow cytometry (PI)
Method: (§1) The adherent MCF-7 breast cancer cells and NCI-H522 non small cell lung cancer cells were grown and maintained in EMEM cell culture media containing 10% fetal calf serum.
(§2) Cells were allowed to adhere for 24 hrs. After adherence, cell culture media was changed to that containing 0.5% FCS. Thirty minutes post-media change, test compounds were added at a concentration of either 1.0 or 0.1 μM (as specified in the Tables). Twenty-four hours after test agent addition, cells were analyzed for cell cycle status as described below.
(§3) Cell cycle status was analyzed by flow cytometry. Briefly, cells were collected and washed with FACs buffer (Pharmingen) and resuspended and fixed in 1 mL of 80% ethanol for 1 hr. Cells were washed with FACs buffer and resuspended in propidium iodide(PI)/RNase staining buffer (Pharmingen). PI is a fluorescent dye that labels nucleic acids such as DNA. The fluorescence within a cell (in the presence of PI) is proportional to the amount of DNA within a cell. The cell content of DNA is an indicator of status in the cell cycle. […] Cells in the S phase have DNA content that lies between these extremes.
(§4) For testing of cell cycle effects of test agents the percentage of cells within the G1 and G2/M phase were measured.

[2] = test system: MCF-7 breast cancer cells; assay: Cell cycle assay (Example 164), G2/M block in MCF-7 cells; assay type: cell-based; conditions: for activation at 0.1 µM / MCF-7 G2/M Block 1 μM: 24 h, flow cytometry (PI); for activation at 0.1 µM: Table 4; for MCF-7 G2/M Block 1 μM: Table 3
Method: as §1, §2, §3, §4

Structure (SMILES): Nc1nccc(-c2cc(O)cc(-c3cccc4[nH]ccc34)c2)n1 [3-(2-Amino-pyrimidin-4-yl)-5-(1H-indol-4-yl)-phenol]
- activation at 0.1 µM ([1]; Table 4): ≥ 50%
- activation at 0.1 µM ([2]; Homo sapiens, MCF7): < 50%

Structure (SMILES): CC(=O)Nc1cc(C(=O)c2cc(C)nc(N(C)C)c2)cc(-c2cccc3[nH]ccc23)c1 [N-[3-(2-Dimethylamino-6-methyl-pyridine-4-carbonyl)-5-(1H-indol-4-yl)-phenyl]-acetamide]
- activation at 0.1 µM ([1]; Table 4): ≥ 50%
- activation at 0.1 µM ([2]; Homo sapiens, MCF7): ≥ 50%

Structure (SMILES): CS(=O)(=O)Nc1cc(C(=O)c2ccnc(N3CCCCC3)c2)cc(-c2cccc3[nH]ccc23)c1 [N-[3-(1H-Indol-4-yl)-5-(3,4,5,6-tetrahydro-2H-[1,2′]bipyridinyl-4′-carbonyl)-phenyl]-methanesulfonamide]
- activation at 0.1 µM ([1]; Table 4): ≥ 50%
- activation at 0.1 µM ([2]; Homo sapiens, MCF7): < 50%

Structure (SMILES): O=C(CO)Nc1cc(C(=O)c2ccnc(N3CCOCC3)c2)cc(-c2cccc3[nH]ccc23)c1 [2-Hydroxy-N-[3-(1H-indol-4-yl)-5-(2-morpholin-4-yl-pyridine-4-carbonyl)-phenyl]-acetamide]
- activation at 0.1 µM ([1]; Table 4): ≥ 50%
- activation at 0.1 µM ([2]; Homo sapiens, MCF7): ≥ 50%

Structure (SMILES): CS(=O)(=O)Nc1cc(-c2cc(C(F)(F)F)ccc2F)cc(-c2cccc3[nH]ccc23)c1 [N-[2′-fluoro-5-(1H-indol-4-yl)-5′-trifluoromethyl-biphenyl-3-yl]-methanesulfonamide]
- activation at 0.1 µM ([1]; Table 4): ≥ 50%
- activation at 0.1 µM ([2]; Homo sapiens, MCF7): ≥ 50%

Structure (SMILES): CC(=O)Nc1cc(C(=O)c2cc(C)nc(N3CCOCC3)c2)cc(-c2cccc3[nH]ccc23)c1 [N-[3-(1H-Indol-4-yl)-5-(2-methyl-6-morpholin-4-yl-pyridine-4-carbonyl)-phenyl]-acetamide]
- activation at 0.1 µM ([1]; Table 4): ≥ 50%
- activation at 0.1 µM ([2]; Homo sapiens, MCF7): ≥ 50%

Structure (SMILES): CS(=O)(=O)Nc1cc(C(=O)c2ccnc(N3CCSCC3)c2)cc(-c2cccc3[nH]ccc23)c1 [N-[3-(1H-Indol-4-yl)-5-(2-thiomorpholin-4-yl-pyridine-4-carbonyl)-phenyl]-methanesulfonamide]
- activation at 0.1 µM ([1]; Table 4): ≥ 50%
- activation at 0.1 µM ([2]; Homo sapiens, MCF7): ≥ 50%

- IC50 ([2]; Homo sapiens, MCF7, MCF-7, footnotes * and ** of Table 4, read-out: IC50 (footnote mark in column MCF-7 G2/M Block)): 500 to 5000 nM
Structure (SMILES): COC(=O)Nc1cc(C(=O)c2ccnc(Cl)c2)cc(-c2cccc3[nH]ccc23)c1 [[3-(2-Chloro-pyridine-4-carbonyl)-5-(1H-indol-4-yl)-phenyl]-carbamic acid methyl ester]
- activation at 0.1 µM ([1]; Table 4): < 50%
- activation at 0.1 µM ([2]; Homo sapiens, MCF7): < 50%

Structure (SMILES): Cc1cccc(-c2cc(NS(C)(=O)=O)cc(-c3cccc4[nH]ccc34)c2)c1 [N-[5-(1H-Indol-4-yl)-3′-methyl-biphenyl-3-yl]-methanesulfonamide]
- activation at 0.1 µM ([1]; Table 4): ≥ 50%
- activation at 0.1 µM ([2]; Homo sapiens, MCF7): ≥ 50%

Structure (SMILES): CC(=O)Nc1cc(-c2ccc(Cl)nc2)cc(-c2cccc3[nH]ccc23)c1 [N-[3-(6-Chloro-pyridin-3-yl)-5-(1H-indol-4-yl)-phenyl]-acetamide]
- activation at 0.1 µM ([1]; Table 4): ≥ 50%

Structure (SMILES): CC(=O)Nc1cc(-c2ccnc(Cl)c2)cc(-c2cccc3[nH]ccc23)c1 [N-[3-(2-Chloro-pyridin-4-yl)-5-(1H-indol-4-yl)-phenyl]-acetamide]
- activation at 0.1 µM ([1]; Table 4): ≥ 50%

Structure (SMILES): COC(=O)Nc1cc(C(=O)c2cccnc2)cc(-c2ccc(F)c3[nH]ccc23)c1 [[3-(7-Fluoro-1H-indol-4-yl)-5-(pyridine-3-carbonyl)-phenyl]-carbamic acid methyl ester]
- activation at 0.1 µM ([1]; Table 4): ≥ 50%
- activation at 0.1 µM ([2]; Homo sapiens, MCF7): ≥ 50%

Structure (SMILES): CS(=O)(=O)Nc1cc(-c2nc3ccccc3o2)cc(-c2cccc3[nH]ccc23)c1 [N-[3-Benzoxazol-2-yl-5-(1H-indol-4-yl)-phenyl]-methanesulfonamide]
- activation at 0.1 µM ([1]; Table 4): ≥ 50%
- activation at 0.1 µM ([2]; Homo sapiens, MCF7): ≥ 50%

Structure (SMILES): CS(=O)(=O)Nc1cc(-c2cccc(C(F)(F)F)c2)cc(-c2cccc3[nH]ccc23)c1 [N-[5-(1H-indol-4-yl)-3′-trifluoromethyl-biphenyl-3-yl]-methanesulfonamide]
- activation at 0.1 µM ([1]; Table 4): ≥ 50%
- activation at 0.1 µM ([2]; Homo sapiens, MCF7): ≥ 50%

Structure (SMILES): COc1ccc(-c2cc(NS(C)(=O)=O)cc(-c3cccc4[nH]ccc34)c2)cn1 [N-[3-(1H-Indol-4-yl)-5-(6-methoxy-pyridin-3-yl)-phenyl]-methanesulfonamide]
- activation at 0.1 µM ([1]; Table 4): ≥ 50%
- activation at 0.1 µM ([2]; Homo sapiens, MCF7): ≥ 50%

Structure (SMILES): COC(=O)Nc1cc(C(=O)c2ccnc(OC)c2)cc(-c2cccc3[nH]ccc23)c1 [[3-(1H-Indol-4-yl)-5-(2-methoxy-pyridine-4-carbonyl)-phenyl]-carbamic acid methyl ester]
- activation at 0.1 µM ([1]; Table 4): < 50%
- activation at 0.1 µM ([2]; Homo sapiens, MCF7): ≥ 50%

Structure (SMILES): CS(=O)(=O)Nc1cc(C(=O)c2ccnc(N3CCOCC3)c2)cc(-c2cccc3[nH]ccc23)c1 [N-[3-(1H-Indol-4-yl)-5-(2-morpholin-4-yl-pyridine-4-carbonyl)-phenyl]-methanesulfonamide]
- activation at 0.1 µM ([1]; Table 4): ≥ 50%
- activation at 0.1 µM ([2]; Homo sapiens, MCF7): ≥ 50%

Structure (SMILES): CC(=O)Nc1cc(-c2ccc(F)cc2F)cc(-c2cccc3[nH]ccc23)c1 [N-[5-(1H-Indol-4-yl)-2′,4′-difluoro-biphenyl-3-yl]-acetamide]
- activation at 0.1 µM ([1]; Table 4): ≥ 50%
- activation at 0.1 µM ([2]; Homo sapiens, MCF7): ≥ 50%

Structure (SMILES): COC(=O)Nc1cc(C(=O)c2ccnc(N3CCOCC3)c2)cc(-c2cccc3[nH]ccc23)c1 [[3-(1H-Indol-4-yl)-5-(2-morpholin-4-yl-pyridine-4-carbonyl)-phenyl]-carbamic acid methyl ester]
- activation at 0.1 µM ([1]; Table 4): ≥ 50%
- activation at 0.1 µM ([2]; Homo sapiens, MCF7): ≥ 50%

Structure (SMILES): CC(=O)Nc1cc(C(=O)c2ccnc(N(C)C)c2)cc(-c2cccc3[nH]ccc23)c1 [N-[3-(2-Dimethylamino-pyridine-4-carbonyl)-5-(1H-indol-4-yl)-phenyl]-acetamide]
- activation at 0.1 µM ([1]; Table 4): ≥ 50%
- activation at 0.1 µM ([2]; Homo sapiens, MCF7): ≥ 50%

Structure (SMILES): COc1ccc(-c2cc(NC(C)=O)cc(-c3cccc4[nH]ccc34)c2)cn1 [N-[3-(1H-Indol-4-yl)-5-(6-methoxy-pyridin-3-yl)-phenyl]-acetamide]
- activation at 0.1 µM ([1]; Table 4): ≥ 50%
- activation at 0.1 µM ([2]; Homo sapiens, MCF7): ≥ 50%

Structure (SMILES): COC(=O)Nc1cc(C(=O)c2cc(C)nc(C#N)c2)cc(-c2cccc3[nH]ccc23)c1 [[3-(2-Cyano-6-methyl-pyridine-4-carbonyl)-5-(1H-indol-4-yl)-phenyl]-carbamic acid methyl ester]
- activation at 0.1 µM ([1]; Table 4): ≥ 50%
- activation at 0.1 µM ([2]; Homo sapiens, MCF7): ≥ 50%

Structure (SMILES): COC(=O)Nc1cc(-c2nc3ccccc3o2)cc(-c2cccc3[nH]ccc23)c1 [[3-Benzoxazol-2-yl-5-(1H-indol-4-yl)-phenyl]-carbamic acid methyl ester]
- activation at 0.1 µM ([1]; Table 4): ≥ 50%
- activation at 0.1 µM ([2]; Homo sapiens, MCF7): ≥ 50%

Structure (SMILES): Nc1ccc(-c2cccc3[nH]ccc23)cc1C(=O)c1cccnc1 [[2-Amino-5-(1H-indol-4-yl)-phenyl]-pyridin-3-yl-methanone]
- activation at 0.1 µM ([1]; Table 3): ≥ 50%
- MCF-7 G2/M Block 1 μM [2]: Y (Y indicates a 50% or greater increase in the number of cells in the G2/M phase, as compared to control)

Structure (SMILES): COC(=O)Nc1cc(C(=O)c2ccnc(C)c2)cc(-c2cccc3[nH]ccc23)c1 [[3-(1H-Indol-4-yl)-5-(2-methyl-pyridine-4-carbonyl)-phenyl]-carbamic acid methyl ester]
- activation at 0.1 µM ([1]; Table 4): ≥ 50%
- activation at 0.1 µM ([2]; Homo sapiens, MCF7): < 50%

Structure (SMILES): COC(=O)Nc1cc(-c2ccncc2)cc(-c2cccc3[nH]ccc23)c1 [[3-(1H-Indol-4-yl)-5-pyridin-4-yl-phenyl]-carbamic acid methyl ester]
- activation at 0.1 µM ([1]; Table 4): ≥ 50%
- activation at 0.1 µM ([2]; Homo sapiens, MCF7): ≥ 50%

Structure (SMILES): CC(=O)Nc1cc(-c2ccncc2)cc(-c2cccc3[nH]ccc23)c1 [N-[3-(1H-Indol-4-yl)-5-pyridin-4-yl-phenyl]-acetamide]
- activation at 0.1 µM ([1]; Table 4): ≥ 50%
- activation at 0.1 µM ([2]; Homo sapiens, MCF7): ≥ 50%

Structure (SMILES): CN(C)c1ncccc1Nc1cc(O)cc(-c2cccc3[nH]ccc23)c1 [3-(2-Dimethylamino-pyridin-3-ylamino)-5-(1H-indol-4-yl)-phenol]
- activation at 0.1 µM ([1]; Table 3): ≥ 50%
- MCF-7 G2/M Block 1 μM [2]: Y (Y indicates a 50% or greater increase in the number of cells in the G2/M phase, as compared to control)

Structure (SMILES): CS(=O)(=O)Nc1cc(-c2ccc(F)cc2F)cc(-c2cccc3[nH]ccc23)c1 [N-[5-(1H-Indol-4-yl)-2′,4′-difluoro-biphenyl-3-yl]-methanesulfonamide]
- activation at 0.1 µM ([1]; Table 4): ≥ 50%
- activation at 0.1 µM ([2]; Homo sapiens, MCF7): < 50%

Structure (SMILES): CC(=O)Nc1cc(-c2cccc(C)c2)cc(-c2cccc3[nH]ccc23)c1 [N-[5-(1H-Indol-4-yl)-3′-methyl-biphenyl-3-yl]-acetamide]
- activation at 0.1 µM ([1]; Table 4): ≥ 50%
- activation at 0.1 µM ([2]; Homo sapiens, MCF7): ≥ 50%

Structure (SMILES): CC(=O)Nc1cc(C(=O)c2ccnc(N3CCOCC3)c2)cc(-c2cccc3[nH]ccc23)c1 [N-[3-(1H-Indol-4-yl)-5-(2-morpholin-4-yl-pyridine-4-carbonyl)-phenyl]-acetamide]
- activation at 0.1 µM ([1]; Table 4): ≥ 50%
- activation at 0.1 µM ([2]; Homo sapiens, MCF7): ≥ 50%

Structure (SMILES): COC(=O)Nc1cc(C(=O)c2cc(C)nc(N3CCOCC3)c2)cc(-c2cccc3[nH]ccc23)c1 [[3-(1H-Indol-4-yl)-5-(2-methyl-6-morpholin-4-yl-pyridine-4-carbonyl)-phenyl]-carbamic acid methyl ester]
- activation at 0.1 µM ([1]; Table 4): ≥ 50%
- activation at 0.1 µM ([2]; Homo sapiens, MCF7): ≥ 50%

Structure (SMILES): CN(C)c1cc(C(=O)c2ccnc(N(C)C)c2)cc(-c2cccc3[nH]ccc23)c1 [[3-Dimethylamino-5-(1H-indol-4-yl)-phenyl]-(2-dimethylamino-pyridin-4-yl)-methanone]
- activation at 0.1 µM ([1]; Table 4): ≥ 50%
- activation at 0.1 µM ([2]; Homo sapiens, MCF7): < 50%

- IC50 ([1]; H522, footnotes * and ** of Table 4, read-out: IC50 (footnote mark in H522 G2/M Block)): 100 to 1000 nM
Structure (SMILES): CCOc1ccc(-c2cc(NC(C)=O)cc(-c3cccc4[nH]ccc34)c2)cn1 [N-[3-(6-Ethoxy-pyridin-3-yl)-5-(1H-indol-4-yl)-phenyl]-acetamide]
- activation at 0.1 µM ([1]; Table 4): < 50%
